From patent US20230095509A1, “NON-FIBRILLAR HEMOGLOBIN S OLIGOMERS AND METHODS TO IDENTIFY MODULATORS OF HEMOGLOBIN S POLYMERIZATION” (REGENTS OF THE UNIVERSITY OF MINNESOTA, priority 2021, published 2023)
“Also recorded” adds a separate entry of the source.

Assays:
[1] = target: T1, deoxyHbS oligomers (HbS-rhodamine red / HbS-Cy5) (Homo sapiens, UniProt P68871+P69905, E7V); test: Fluorescence lifetime (FLT) FRET assay of deoxyHbS oligomerization (LOPAC screen and dose response); type: biochemical; conditions: for FRET efficiency in dose response: 0.1 to 1000 μM, 2 hours at room temperature, then degassed, FIG. 4B; for FRET efficiency of HbS under deoxy conditions: known polymerization inhibitors as controls, FIG. 1D
T1 construct: purchased Sigma
Experimental: Development of HTS platform for identification of small molecules that inhibit in vitro HbS nucleation: Sickle hemoglobin (HbS) (sigma) was labeled with either fluorescent donor (rhodamine red) or acceptor (Cy5) dyes (Thermo fisher scientific) via a cysteine thiol group. For labeling, lyophilized HbS (10 mg/ml) was dissolved in PBS (Sigma) and then centrifuged at 13000 g for five minutes at 4° C. to remove the debris. After centrifugation protein sample was incubated with TCEP (0.5-1 mM) for 20 minutes at room temperature to reduce the cysteine side-chain. This protein mixture was incubated with 1.5 mM dye (dissolved in DMSO or water) for two hours in the dark at room temperature or overnight at 4° C. Unreacted free dye was removed by dialysis against PBS. The degree of labeling was calculated by comparing the absorption of the fluorophore conjugated hemoglobin at 280 nm to the absorbance of the dye at its maximum wavelength. The dye concentration was measured by absorbance, using extinction coefficients of 250,000 M −1 cm -1 for Cy5 conjugates and 88000 M −1 cm -1 for Rhodamine Red conjugates.
High-Throughput Screening of LOPAC Library to Identify Compounds That Inhibit HbS Oligomerization Under Deoxy Condition: The LOPAC compounds (Thermo Fisher Scientific) were received in 96-well plates. Assay plates were prepared by transferring 5 nL of the 10 mM compound stocks or DMSO from the source plates to 1536-well black polypropylene plates (Greiner), using an Echo 550 acoustic dispenser (Labcyte). During screening, donor sample (HbS/Rhodamine Red) was mixed with acceptor (HbS/Cy5) at 1:5 ratios. Then protein samples were dispensed (5 μL, 25 μM) by a Multidrop Combi Reagent Dispenser (Thermo Fisher Scientific) into the 1536-well assay plates containing the compounds and incubated at room temperature for two hours. After incubation, protein samples were degassed for 10-15 minutes using vacuum argon degassing method. Lifetime measurements were taken by the fluorescence lifetime plate reader (Fluorescence Innovations, Inc).
Fluorescence Data Acquisition: We tested the functionality of the HbS FRET pair by measuring lifetimes of oxy-and deoxy HbA and HbS using a fluorescence lifetime plate reader (FIG. 3A). Lifetimes are reciprocally related to FRET, so a decrease in lifetime corresponds to an increase in FRET. Donor fluorescence was excited with a 532 nm laser (Teem Photonics SNG-20F-100, Meylan, France), delivering pulses of -0.3 μJ energy at a 20 kHz repetition rate, and emission was filtered with 546 nm long pass and 586/20 nm band pass filters. This filter was selected to exclude acceptor fluorescence, as only the lifetime of the donor fluorescent protein is required to calculate FRET (Equation (1)). The photomultiplier tube (PMT) voltage was adjusted so that the peak signals of the instrument response function (IRF) and FRET biosensor were similar.
High-Throughput Screening Data Analysis: Time resolve-fluorescence waveforms for each well were fitted with single-exponential decays using least-squares minimization global analysis software (Petersen et al., F2014, Rev Sci Instrum 85, 113101). FRET efficiency (E) was determined as the fractional decrease of donor lifetime (T_D ), due to the presence of acceptor fluorophore (T_DA) using equation 1: […]
These drug compounds were dissolved in DMSO to make 20 mM stock solution. Hits were screened at seven different concentrations. Protein samples were dispensed into the 96-well assay plates and incubated with hit compounds at room temperature for two hours. After incubation, protein samples were degassed for 10 minutes using vacuum argon degassing method. Lifetime measurements were taken by the fluorescence lifetime plate reader (Fluorescence Innovations, Inc).

[2] = tested on: RBC from healthy donors (genotype HbAA); test: Microfluidic measurement of RBC oxygen saturation (Quantitative Absorption Cytometry, P50); type: cell-based, human; conditions: for P50 (hemoglobin oxygen binding affinity) relative to control: 500 μM, RBC from 4 healthy donors, 1 hr at 37C at 25% hematocrit, diluted to 1% hematocrit with drug, FIG. 10
Experimental: Measurement of hemoglobin oxygen saturation in RBC from 4 healthy donors (genotype HbAA). RBC at 25% hematocrit were incubated with 500 uM voxelotor, chlormezanone, gabazine, or DMSO (control) for 1 hr at 37C and then diluted to 1% hematocrit with drug.
Microfluidic Measurement of RBC Oxygen Saturation: The Quantitative Absorption Cytometry assay described previously (Di Caprio et al., 2019, Proc Natl Acad Sci USA 116, 25236-25242; Di Caprio et al., 2015, Proc Natl Acad Sci USA 112, 9984-9989), takes images of single red blood cells (RBC) under alternating 410 nm and 430 nm LEDs. Due to the unique absorption spectra of oxy and deoxy hemoglobin the transmitted light at 410 nm and 430 nm permits measurement of the single cell saturation can be calculated. The cells are perfused through a microfluidic device with oxygen control that permits measurement of the oxygen saturation of a population of RBC under defined oxygen tension. The polydimethysiloxane (PDMS) microfluidic device for this assay comprises two layers- a gas layer and a blood layer bonded to a glass coverslip. These two layers are separated by 100 μm of PDMS. The gas layer allows for precise control of oxygen tension that will diffuse to the blood layer; the blood layer contains a 30 mm diffusion section to allow red blood cells to reach steady state saturation and a 5 mm observation section to imaging RBCs.
To prepare RBC for measurement, blood samples were washed and resuspended in 10% w/v BSA in PBS, and 0.5 μL of 100 mM therapeutic in DMSO was added to the sample. The sample was then incubated on a shaker plate at 37° C. for one hour. After incubation samples were washed again and 10 μL packed red blood cells was added to a solution of 288 μL 25% Human Serum Albumin (HAS) solution (Gemini Bio).
In this assay, we prepared samples identically to the preparation for blood flow by incubating with drug at 25% hematocrit, and then we diluted the samples to 1% hematocrit with […] drug in the dilution buffer.

Row | Structure (SMILES) | IC50 [1] [µM] | FRET efficiency in dose response [1] | effect on FRET efficiency in the LOPAC pilot screen ([1]; LOPAC screen, mean of three independent screens, FIG. 4A) | P50 (hemoglobin oxygen binding affinity) relative to control [2] | FRET efficiency of HbS under deoxy conditions [1] | FRET efficiency of HbS under deoxy conditions ([1]; listed as Voxelotor) | modification of hemoglobin ([2]; samples diluted to 1% hematocrit with drug in the dilution buffer) [%]
1 | CN1C(=O)CCS(=O)(=O)C1c1ccc(Cl)cc1 (stereo not shown) [chlormezanone] | > 100 | decreased FRET efficiency in a dose-dependent manner | by far the largest effect | neither chlormezanone nor gabazine significantly shifted P50; also recorded: no significant (p>0.05) change in P50 |  |  | 
2 | COc1ccc(-c2ccc(=N)n(CCCC(=O)O)n2)cc1 [gabazine] |  | decreased FRET efficiency in a dose-dependent manner |  | neither chlormezanone nor gabazine significantly shifted P50; also recorded: no significant (p>0.05) change in P50 |  |  | 
3 | CC(C)n1nccc1-c1ncccc1COc1cccc(O)c1C=O [voxelotor] |  |  |  | significantly (p<0.05) decreases P50; also recorded: large shift in P50; also recorded: significantly decreased the P50 | decreased the FRET efficiency | reduced FRET efficiency | ~100
